Data from US10137072B2, “Methods and compositions for providing broad spectrum photo protection using antioxidants” (L'OREAL, priority 2016, dated 2018).
Where two headings read alike, the source gives them in different places.

System: human skin keratinocytes and/or fibroblasts
Test: in vitro ROS probe assay: protection of live skin cells against ROS induced by visible light and infrared radiation
Type: cell-based
Design: key to Visible light protection % / IR protection %: Strong: “strong” refers to a percent protection greater than 70%; “Medium” refers to a percent protection less than or equal to 70% but greater than or equal to 40%; “Low” refers to a percent protection less than 40%; Negative: The term “negative” is used when there is no protection
Conditions: cells pre-treated 24 hours at 10 μg/ml (0.001%), antioxidant removed before exposure; for inhibition at 10 µg/mL: Homo sapiens, light or radiation study
Excerpt: A sensitive in vitro ROS (Reactive Oxygen Species) probe was used to evaluate the protective effects of antioxidants on live skin cells against visible light and infrared radiation (IR). Based on a blind screening of 26 compounds, 12 compounds were discovered that efficiently (>40%) decrease the ROS induced by visible light and/or IR radiation on human skin keratinocytes and/or fibroblasts. These compounds (or mixtures of these compounds) provide biological protection for skin cells against visible light and infrared radiation.
Human cells were pre-treated with and without antioxidants for 24 hours at a very low concentration (10 μg/ml (0.001%)). After incubation for 24 hours, the cells were rinsed and the medium changed in order to remove all the antioxidants before light exposure. The cells were exposed to visible light (100 J/cm^2) and infrared radiation (200 J/cm^2) using Xenon Light Source 300W Monochromatic Light with Filters Max-303 (Asashi Spectra company). After exposure to the visible light and the IR radiation, a new ROS probe was incubated with the cells for one hour to track the in vitro ROS produced. A comfocal microscope and associated software was used to image the fluorescent signals from individual cells and quantify the fluorescence intensity. By comparing with control samples without a pretreatment of antioxidants, it was possible to quantify the protection effect.
In the table above, “strong” refers to a percent protection greater than 70%, “Medium” refers to a percent protection less than or equal to 70% but greater than or equal to 40%. “Low” refers to a percent protection less than 40%. The term “negative” is used when there is no protection. The protection percentage was defined according to the equation below (wherein the term “AOX” refers to “antioxidant”).
Since the in vitro tests were done on live human skin cells, kerotinocytes and fibroblasts, and the antioxidants in the cell culture media were removed before light exposure, the results directly predict the biological protection effects of the antioxidants on skin against visible light and infrared radiation.

[1] = ROS induced by infrared radiation (200 J/cm^2)
[2] = ROS induced by visible light (100 J/cm^2)
[3] = ROS induced by visible light (100 J/cm^2), read-out: Visible light protection %
[4] = ROS induced by infrared radiation (200 J/cm^2), read-out: IR protection %

COc1ccc(CCC(=O)c2c(O)cc(O[C@@H]3O[C@H](CO)[C@@H](O)[C@H](O)[C@H]3O[C@@H]3O[C@@H](C)[C@H](O)[C@@H](O)[C@H]3O)cc2O)cc1O [Neohesperidin DHC]
IR protection % [1]: Strong (“strong” refers to a percent protection greater than 70%)
Visible light protection % [2]: Negative

Oc1ccc(C=Cc2cc(O)cc(O)c2)cc1 [Resveratrol]
inhibition at 10 µg/mL [3]: < 40%
IR protection % [1]: Negative

C=CC(C)(C)c1cc(/C=C/C(=O)c2ccc(O)cc2)c(OC)cc1O [licochalcone A]
Visible light protection % [2]: Negative

O=C(CCc1ccc(O)cc1)c1c(O)cc(O)cc1O [Phloretin]
Visible light protection % [2]: Negative

CC1=NCC[C@@H](C(=O)O)N1 [Ronacare Ectoin]
IR protection % [1]: Low (“Low” refers to a percent protection less than 40%)
Visible light protection % [2]: Negative

OC[C@H]1O[C@@H](Oc2cc(O)cc(/C=C/c3ccc(O)cc3)c2)[C@H](O)[C@@H](O)[C@@H]1O [Polydatin, polydatin]
inhibition at 10 µg/mL [4]: > 70%
inhibition at 10 µg/mL [3]: > 70%

C[C@@H]1O[C@@H](O[C@H]2C(=O)c3c(O)cc(O)cc3O[C@@H]2c2ccc(O)c(O)c2)[C@H](O)[C@H](O)[C@H]1O [Astilbin, astilbin]
inhibition at 10 µg/mL [4]: 40 to 70%
inhibition at 10 µg/mL [3]: 40 to 70%

COc1cc(/C=C/C(=O)O)ccc1O [Ferulic Acid, ferulic acid]
inhibition at 10 µg/mL [4]: 40 to 70%
inhibition at 10 µg/mL [3]: 40 to 70%

O=C1O[C@H]([C@@H](O)CO)C(O)=C1O [Vit C]
IR protection % [1]: Low (“Low” refers to a percent protection less than 40%)
Visible light protection % [2]: Low (“Low” refers to a percent protection less than 40%)

O=C(O)[C@H]1O[C@@H](Oc2cc3oc(-c4ccccc4)cc(=O)c3c(O)c2O)[C@H](O)[C@@H](O)[C@@H]1O [Baicalin, baicalin]
inhibition at 10 µg/mL [4]: 40 to 70%
inhibition at 10 µg/mL [3]: > 70%

O=C1N[C@H](C(=O)O)CS1 [Pro-cysteine]
inhibition at 10 µg/mL [4]: < 40%
Visible light protection % [2]: Negative

NCCC(=O)N[C@@H](Cc1c[nH]cn1)C(=O)O [Carnosin]
IR protection % [1]: Low (“Low” refers to a percent protection less than 40%)
Visible light protection % [2]: Low (“Low” refers to a percent protection less than 40%)

COc1ccc([C@@H]2CC(=O)c3c(O)cc(O)cc3O2)cc1O [Hesperetin, hesperetin]
inhibition at 10 µg/mL [4]: < 40%
inhibition at 10 µg/mL [3]: > 70%

COC1=C(OC)C(=O)C(C/C=C(\C)CC/C=C(\C)CC/C=C(\C)CC/C=C(\C)CC/C=C(\C)CC/C=C(\C)CC/C=C(\C)CC/C=C(\C)CC/C=C(\C)CCC=C(C)C)=C(C)C1=O [Ubiquinone(coQ10), Ubiquinone]
inhibition at 10 µg/mL [4]: > 70%

catechin
IR protection % [1]: Medium (“Medium” refers to a percent protection less than or equal to 70% but greater than or equal to 40%)
Visible light protection % [2]: Strong (“strong” refers to a percent protection greater than 70%)
